According to publication PMC10326435, “Antiprotozoal activity of natural products from Nigerien plants used in folk medicine” (Frontiers in Pharmacology, 2023):
Several values for one entry are separate records, joined by “and”; a condition that tells them apart may be missing. Identical values can stand only once. Like-named read-outs stand apart in the source and are kept apart here.

What was measured:
[1] = tested on: P. falciparum (NF54, intraerythrocytic); experiment: in vitro activity on P. falciparum, serial dilution assay; assay type: cell-based, Plasmodium falciparum; conditions: for IC50: Plasmodium falciparum, read-out: IC50 P. falciparum; for Selectivity index (SI) P. falciparum: SI = IC50 cytotoxicity (L6)/IC50 in P. falciparum
Method: (§1) The in vitro activity was assessed on T. b. rhodesiense (STIB900, trypomastigotes), T. cruzi (Tulahuen C2C4, intracellular amastigotes), L. donovani (MHOM-ET-67/L82, axenically grown amastigotes), P. falciparum (NF54, intraerythrocytic), and L6 cells (ATCC, CRL-1458™, rat skeletal myoblasts) as previously described ([Bernal et al., 2020]). The activities were determined in serial dilution assays with 72 h compound exposure, respectively 96 h for intracellular T. cruzi. Results are expressed in µg/mL for extracts and in µM for pure compounds. The IC50 values were determined for the compounds only when they were <50 µM.

[2] = tested on: L. donovani (MHOM-ET-67/L82, axenically grown amastigotes); experiment: in vitro activity on L. donovani, serial dilution assay; assay type: cell-based, Leishmania donovani; conditions: for IC50: Leishmania donovani; for Selectivity index (SI) L. donovani: SI = IC50 cytotoxicity (L6)/IC50 in L. donovani
Method: as §1

[3] = tested on: T. b. rhodesiense (STIB900, trypomastigotes); experiment: in vitro activity on T. b. rhodesiense, serial dilution assay; assay type: cell-based, Trypanosoma brucei rhodesiense; conditions: for Selectivity index (SI) T. b. rhodesiense: SI = IC50 cytotoxicity (L6)/IC50 in T. b. rhodesiense; for IC50: Trypanosoma brucei
Method: as §1

[4] = tested on: T. cruzi (Tulahuen C2C4, intracellular amastigotes); experiment: in vitro activity on T. cruzi, serial dilution assay; assay type: cell-based, Trypanosoma cruzi; conditions: for IC50: Trypanosoma cruzi, TULAHUEN
Method: as §1

[5] = cytotoxicity in L6 cells; assay type: cell-based, rat
Method: as §1

[6] = tested on: P. falciparum; conditions: already reported; ref Suksamrarn et al., 2006; Panseeta et al., 2011; Tuenter et al., 2017; read-out: antiplasmodial activity IC50; cited from earlier work
[7] = NF54, 72 h, 72 h exposure, means of two independent assays ± deviation from the mean
[8] = 72 h, axenic amastigotes, 72 h exposure, means of two independent assays ± deviation from the mean, read-out: IC50 L. donovani
[9] = 72 h, 72 h exposure, means of two independent assays ± deviation from the mean, read-out: IC50 T. b. rhodesiense
[10] = 96 h, 96 h exposure, means of two independent assays ± deviation from the mean, read-out: IC50 T. cruzi
[11] = rat, L6 cells (rat skeletal myoblasts, ATCC CRL-1458), rat skeletal myoblast (L6 cells), 72 h exposure, means of two independent assays ± deviation from the mean, read-out: IC50 Cytotoxicity

SMILES	IC50 [1, 7]	Selectivity index (SI) P. falciparum [1]	IC50 [2, 8]	IC50 [3, 9]	IC50 [4, 10]	IC50 at 72 h ([5]; rat, IC50 Cytotoxicity)	other results
COc1ccc2cc1/C=C\NC(=O)[C@H](Cc1ccccc1)NC(=O)[C@@H]1[C@H](CCN1C(=O)[C@@H](NC(=O)C(C)N(C)C)C(C)C)O2 (stereo in doubt) [Compound 10, amphibine H]	15.1 ± 0.5 µM	> 5.3	> 50 µM	30.4 ± 4.6 µM	> 50 µM	> 50 µM	Selectivity index (SI) T. b. rhodesiense [3]: > 2.5
O=C(Cn1ccnc1[N+](=O)[O-])NCc1ccccc1 [Benznidazole, reference compound]					2.3 ± 0.2 µM		IC50 ([4]; 96 h, Table 2, 96 h exposure, means of two independent experiments, read-out: IC50 T. cruzi): 0.667 µg/mL
CCN(CC)CCCC(C)Nc1ccnc2cc(Cl)ccc12 (stereo not drawn) [Chloroquine, reference compound]							IC50 ([1]; NF54, 72 h): 0.003 µg/mL and 9 nM
CCCCCCCCCCCCCCCC(=O)OCC(O)COP(=O)([O-])OCC[N+](C)(C)C (stereo not drawn) [Compound 3, 1-palmitoyl-lysolecithin]	> 10 µM		> 20 µM	> 20 µM		> 20 µM	IC50 ([4]; 96 h, read-out: IC50 T. cruzi): 12.1 ± 2.4 µM
CN[C@@H](C)C(=O)N[C@H](C(=O)N1CC[C@@H]2Oc3ccc(cc3)/C=C\NC(=O)[C@H](Cc3ccccc3)NC(=O)[C@H]21)C(C)C [Compound 4, mauritine F]	24.3 ± 4.5 µM	> 5.5	> 50 µM	> 50 µM	> 50 µM	> 50 µM	IC50 [6]: 34.2 µM
CC(C)[C@H](NC(=O)[C@H](C)N(C)C)C(=O)N1CC[C@@H]2Oc3ccc(cc3)/C=C\NC(=O)[C@H](Cc3ccccc3)NC(=O)[C@H]21 [Compound 5, mauritine A]							IC50 ([1]; NF54, abstract and b45 text): > 50 µM; IC50 ([2]; inactive, read-out: IC50 L. donovani (inactive)): > 50 µM; IC50 ([3]; inactive, read-out: IC50 T. b. rhodesiense (inactive)): > 50 µM; IC50 ([4]; inactive, read-out: IC50 T. cruzi (inactive)): > 50 µM
C=C(C)[C@@H]1CC[C@]2(C(=O)O)CC[C@]3(C)[C@H](CC[C@@H]4[C@@]5(C)[C@@H](C(=O)O)[C@H](O)C(C)(C)[C@@H]5CC[C@]43C)[C@@H]12 [Compound 6, ceanothic acid]	> 50 µM		29 ± 3.3 µM	> 50 µM	> 50 µM	> 50 µM	Selectivity index (SI) L. donovani [2]: > 1.7; IC50 [6]: > 20 µM
CN[C@@H](Cc1ccccc1)C(=O)N[C@@H]1C(=O)N[C@@H](CC(C)C)C(=O)N/C=C\c2ccc(cc2)O[C@H]1C(C)C [Compound 7, sanjoinine B]	23.1 ± 9 µM	> 6.0	> 50 µM	> 50 µM	> 50 µM		IC50 at 72 h [5, 11]: > 50 µM
CCC(C)[C@@H]1NC(=O)[C@@H](NC(=O)[C@H](Cc2ccccc2)N(C)C)[C@H](C(C)C)Oc2ccc(cc2)/C=C\NC1=O (stereo partly drawn) [Compound 8, lotusanine A]	> 50 µM		> 50 µM	> 50 µM	> 50 µM		IC50 at 72 h [5, 11]: > 50 µM
CC(C)C[C@@H]1NC(=O)[C@@H](NC(=O)[C@H](Cc2c[nH]c3ccccc23)N(C)C)[C@H](C(C)C)Oc2ccc(cc2)/C=C\NC1=O [Compound 9, nummularine K]	20.7 ± 5.8 µM	1.6	> 50 µM	12.7 ± 3.8 µM	43.6 ± 7.1 µM		Selectivity index (SI) T. b. rhodesiense [3]: 2.7; Selectivity index (SI) T. cruzi ([4]; SI = IC50 cytotoxicity (L6)/IC50 in T. cruzi): 0.8; IC50 at 72 h [5, 11]: 33.6 ± 4.9 µM
C=C(C)C12CCC3(CCC4(C)C(CCC5C6(C)C(C(=O)O)C(O)C(C)(C)C6CCC54C)C31)C(=O)O2 (stereo not drawn) [Compound 13]	29.1 ± 4.1 µM	> 3.7	11.6 ± 2.4 µM	> 50 µM	> 50 µM	> 50 µM	Selectivity index (SI) L. donovani [2]: > 9.3
C=C(C)[C@@H]1CC[C@]2(C(=O)O)CC[C@]3(C)[C@H](CC[C@@H]4[C@@]5(C)[C@H](C=O)[C@@H](O)C(C)(C)[C@@H]5CC[C@]43C)[C@@H]12 [Compound 14, colubrinic acid]		> 5.5					IC50 ([1]; NF54, 72 h): 15.3 ± 4.1 µM; IC50 ([2]; 72 h, read-out: IC50 L. donovani): 1.9 ± 0.4 µM; Selectivity index (SI) L. donovani [2]: > 45; IC50 ([3]; 72 h exposure, means of two independent assays ± deviation from the mean, read-out: IC50 T. b. rhodesiense): > 50 µM; IC50 ([4]; 96 h, read-out: IC50 T. cruzi): > 50 µM; IC50 at 72 h ([5]; rat skeletal myoblast (L6 cells), 72 h exposure, means of two independent assays ± deviation from the mean, read-out: IC50 Cytotoxicity): > 50 µM
